Results as given in PubChem BioAssay (NCI).
“And” between values parts separate entries of the source, which are not always exact repeats. Identical values can stand only once.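 96-well plates; 48 h exposure; 5 concentrations. Endpoints by linear interpolation between flanking doses. Not reached: highest tested concentration assigned. The concentration for 50% growth inhibition is given as GI50. At the TGI there is no net growth.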

Columns and labels:
Test in all cases: NCI tumour cell line growth inhibition, 48 h
[1] = tested on: DMS 273 small cell lung
[2] = tested on: XF 498 CNS
[3] = tested on: DLD-1 colon
[4] = tested on: KM20L2 colon
[5] = tested on: SNB-78 CNS
[6] = tested on: RXF-631 renal
[7] = tested on: HOP-18 NSCLC
[8] = tested on: MDA-N
[9] = tested on: SN12K1 renal
[10] = tested on: P388/ADR leukemia
[11] = tested on: P388 leukemia

## COC(=O)Cc1cc(=O)oc2c1C(=O)CCC2
[1]
  TGI: > 100 µM
[2]
  TGI: > 100 µM
[3]
  TGI: > 100 µM
[4]
  TGI: > 100 µM
[5]
  TGI: > 100 µM

## O=C(O)C(CS)N=Cc1nc(-c2ccccc2)oc1O (centres undefined)
[1]
  TGI: > 100 µM
[3]
  TGI: > 100 µM
[4]
  TGI: > 100 µM
[5]
  TGI: > 100 µM

## NC(=O)c1ncn(C2OC(CO)C(O)C2O)c1NC(=S)NC(=O)c1ccccc1 (centres undefined)
[1]
  TGI: > 100 µM
[3]
  TGI: > 100 µM
[4]
  TGI: > 100 µM
[5]
  TGI: > 100 µM

## CCCC/C=C1\CCC(CN2CCCC2)C1=O (centres undefined)
[1]
  TGI: 34.3 µM
[6]
  TGI: 32.4 µM
[2]
  TGI: 29.6 µM
[3]
  TGI: 12.8 µM
[4]
  TGI: 28.7 µM
[5]
  TGI: 57.2 µM

## CN1C=C(C(N)=O)C2CC(O)[C@@](NC(=O)CS(N)(=O)=O)(C(=O)O)C2C1 (some centres undefined)
[1]
  TGI: 9.75 µM
[6]
  TGI: 9.7 µM
[2]
  TGI: 3.21 µM
[7]
  TGI: > 100 µM
[3]
  TGI: 52.7 µM
[4]
  TGI: > 40.9 µM
[5]
  TGI: 8.68 µM

## CCC1(Cl)C(=O)NC(=O)N(C2CC(O)C(CO)O2)C1N=[N+]=[N-] (centres undefined)
[1]
  TGI: > 100 µM
[6]
  TGI: > 100 µM
[2]
  TGI: > 100 µM
[3]
  TGI: > 100 µM
[4]
  TGI: > 100 µM
[5]
  TGI: > 100 µM

## CCCCOP1(=O)C=CC(Cl)=C(C)C1 (centres undefined)
[6]
  TGI: > 100 µM
[2]
  TGI: 43.2 µM
[7]
  TGI: > 100 µM
[4]
  TGI: 49.5 µM

## Cc1cc(N(CCC#N)CCC#N)ccc1/C=C/C(=O)Nc1ccccc1Cl
[1]
  TGI: > 100 µM
[2]
  TGI: > 100 µM
[3]
  TGI: > 100 µM
[4]
  TGI: > 100 µM

## Cc1cc(C)c2nccc(NCCCN(C)C)c2c1[N+](=O)[O-]
[8]
  TGI: > 100 µM

## Cc1nnc(N=Nc2c(O)[nH]c3ccccc23)[nH]c1=O
[8]
  TGI: > 100 µM

## CCCC(=O)Nc1cn(COC)c(C(=O)N2C[C@H]3C[C@@]34C2=CC(=O)c2[nH]cc(C)c24)n1
[8]
  GI50: 7.62 µM
  TGI: 19.5 µM and 59.6 µM

## COC(=O)C1=C(C(=O)OC)C(C(=O)OC)C(C(=O)OC)C(C(=O)OC)(C(=O)OC)C(C(=O)OC)=C1C(=O)OC (centres undefined)
[8]
  TGI: 31.2 µM
[2]
  TGI: 25.3 µM
[7]
  TGI: 31 µM
[3]
  TGI: 6.98 µM
[4]
  TGI: 35.9 µM
[5]
  TGI: 44 µM

## C=C1C(=O)C23CC1CCC2C12CO[C@@]3(O)[C@@H](O)C1C(C)(C)C=CC2=O (some centres undefined)
[1]
  TGI: 1.3 µM
[8]
  TGI: 7.71 µM
[6]
  TGI: 2.33 µM
[2]
  TGI: 1.42 µM
[7]
  TGI: 2.2 µM
[3]
  TGI: 2.22 µM
[4]
  TGI: 4.39 µM
[5]
  TGI: 2.23 µM

## COc1cc(-c2nn3c(=O)n(-c4ccc(Cl)cc4)c(=O)nc3s2)cc(OC)c1OC
[1]
  TGI: > 100 µM
[6]
  TGI: 50 µM and > 100 µM
[7]
  TGI: > 100 µM
[3]
  GI50: > 50 µM
  TGI: > 100 µM
[4]
  GI50: > 50 µM
  TGI: > 100 µM
[5]
  GI50: 8.88 µM
  TGI: 50 µM and > 100 µM

## N=C(N)SCC(=O)O
[8]
  TGI: > 100 µM

## c1cc2ccc1C1NCCCN1CCN1CCCNC1c1ccc(cc1)C1NCCCN1CCN1CCCNC21 (centres undefined)
[1]
  TGI: > 100 µM
[2]
  TGI: > 100 µM
[7]
  TGI: > 100 µM
[3]
  TGI: > 100 µM
[4]
  TGI: > 100 µM

## C=CCN(N=O)C(=O)ON1C(=O)CCC1=O
[1]
  TGI: > 100 µM
[6]
  TGI: > 100 µM
[7]
  TGI: > 100 µM
[3]
  TGI: > 100 µM
[4]
  TGI: > 100 µM
[5]
  TGI: > 100 µM

## O=C1OC(c2ccc(Cl)c3ccccc23)c2ccccc21 (centres undefined)
[6]
  TGI: > 100 µM
[2]
  TGI: > 100 µM
[7]
  TGI: > 100 µM
[4]
  TGI: > 100 µM
[5]
  TGI: > 100 µM

## COc1cc(/C=C2/C(=O)N(C(=O)c3ccccc3O)N=C2C)ccc1O
[8]
  TGI: > 100 µM
[2]
  TGI: 79.6 µM
[3]
  TGI: > 100 µM
[4]
  TGI: > 100 µM

## C=C[C@@]1(C)CC(=O)[C@]2(O)[C@@]3(C)[C@@H](O)CCC(C)(C)[C@@H]3[C@H](O)[C@@H](OC(C)=O)[C@@]2(C)O1
[8]
  TGI: > 100 µM

## Cc1ccc(N2C(=O)/C(=C3\Sc4c(nc(C)n(C)c4=O)N3c3ccccc3)SC2=S)cc1
[1]
  TGI: > 100 µM
[2]
  TGI: > 100 µM
[4]
  TGI: > 100 µM
[5]
  TGI: > 100 µM

## CC(C)(C)c1cc(C(=O)O)c(C(c2ccccc2)c2ccccc2C(=O)O)c(C(=O)O)c1 (centres undefined)
[1]
  TGI: > 100 µM
[2]
  TGI: > 100 µM
[7]
  TGI: > 100 µM
[3]
  TGI: > 100 µM
[4]
  TGI: > 100 µM
[5]
  TGI: > 100 µM

## CC(=O)Oc1ccc2c(c1)O/C(=C\c1ccc(O)cc1)C2=O
[8]
  TGI: > 100 µM

## C=C1c2ccccc2N(S(=O)(=O)c2ccc(C)cc2)C12CCCCC2
[1]
  TGI: > 100 µM
[2]
  TGI: > 100 µM
[7]
  TGI: > 100 µM
[3]
  TGI: > 100 µM
[4]
  TGI: > 100 µM

## CCOC(=O)c1cc(C(=O)O)c(=O)n2c1[nH]c1ccccc12
[1]
  TGI: > 100 µM
[6]
  TGI: > 100 µM
[2]
  TGI: > 100 µM
[7]
  TGI: > 100 µM
[3]
  TGI: > 100 µM
[4]
  TGI: > 100 µM
[5]
  TGI: > 100 µM

## O=c1ncccn1C1OC(CO)C(O)C1F (centres undefined)
[1]
  TGI: > 100 µM
[6]
  TGI: > 100 µM
[2]
  TGI: > 100 µM
[7]
  TGI: > 100 µM
[3]
  GI50: > 100 µM
  TGI: > 100 µM
[4]
  TGI: > 100 µM
[5]
  TGI: > 100 µM

## CC12O[Te]34OC1(C)C(C)(O3)C2(C)O4
[1]
  TGI: 37.7 µM
[7]
  TGI: 32 µM
[3]
  TGI: 30.4 µM
[4]
  TGI: 87.5 µM
[5]
  TGI: 65.9 µM

## O=C1[C@H]2ON(c3ccccc3)C(c3cccc([N+](=O)[O-])c3)[C@H]2C(=O)N1c1ccc(Cc2ccc(N3C(=O)[C@@H]4ON(c5ccccc5)C(c5cccc([N+](=O)[O-])c5)[C@@H]4C3=O)cc2)cc1 (some centres undefined)
[1]
  TGI: > 100 µM
[7]
  TGI: > 100 µM
[3]
  TGI: > 100 µM
[4]
  TGI: > 100 µM
[5]
  TGI: > 100 µM

## O=C(O)C(Cc1c[nH]c2ccccc12)N1C(=O)c2ccccc2C1=O (centres undefined)
[8]
  TGI: > 100 µM

## CC1(C)Oc2ccccc2N2O[C@@H]3C(=O)N(c4ccccc4)C(=O)[C@@H]3C21c1ccccc1 (some centres undefined)
[7]
  TGI: 49.1 µM
[3]
  TGI: 65.7 µM
[4]
  TGI: > 100 µM
[5]
  TGI: 79.4 µM

## Nc1ccc2c(SCC(=O)Nc3ccccc3-c3ccccc3NC(=O)CSc3c4ccccc4nc4cc(N)ccc34)c3ccccc3nc2c1
[1]
  TGI: > 100 µM
[8]
  TGI: > 69.5 µM
[6]
  TGI: > 100 µM
[2]
  TGI: 52.8 µM
[7]
  TGI: 68.8 µM
[3]
  TGI: 38.4 µM
[4]
  TGI: > 93.5 µM
[5]
  TGI: > 100 µM

## O=C1c2c(O)ccc(O)c2C(=O)c2c(NCCNCCO)ccc(NCCNCCO)c21
[9]
  TGI: 0.305 µM
[1]
  TGI: 0.57 µM
[8]
  TGI: 1.48 µM and 1.66 µM
[2]
  TGI: 0.0879 µM
[7]
  TGI: 1.67 µM
[3]
  TGI: 4.87 µM
[4]
  TGI: 8.09 µM
[10]
  TGI: 6 µM
[11]
  TGI: 0.0821 µM
[5]
  TGI: 1.66 µM

## OCCN(CCO)c1ncnc2c1sc(=S)n2-c1ccccc1
[1]
  TGI: > 100 µM
[2]
  TGI: > 100 µM
[7]
  TGI: > 100 µM
[3]
  TGI: > 100 µM
[4]
  TGI: > 100 µM
[5]
  TGI: > 100 µM

## C1=CC=C2NCCSCCNC3=CC=CC=CC3=NCCSCCN=C2C=C1
[1]
  TGI: > 100 µM
[7]
  TGI: > 100 µM
[3]
  TGI: > 100 µM
[4]
  TGI: > 100 µM
[5]
  TGI: > 100 µM

## COC(=O)C1=C(C(=O)OC)N(C(C)C)[C@H]2C(C(=O)OC)=C(C(=O)OC)N(C(C)C)[C@@H]12
[1]
  TGI: > 100 µM
[6]
  TGI: > 100 µM
[2]
  TGI: > 100 µM
[7]
  TGI: > 100 µM
[3]
  TGI: > 100 µM
[4]
  TGI: > 100 µM
[5]
  TGI: > 100 µM

## O=C1Cc2ccccc2CCc2ccccc21
[1]
  TGI: > 100 µM
[7]
  TGI: > 100 µM
[3]
  TGI: > 100 µM
[4]
  TGI: > 100 µM
[5]
  TGI: > 100 µM

## O=c1/c(=C/c2ccc3c(c2)OCO3)sc2nnc(Cc3ccccc3)n12
[1]
  TGI: > 100 µM
[7]
  TGI: > 100 µM
[3]
  TGI: > 100 µM
[4]
  TGI: > 100 µM
[5]
  TGI: > 100 µM

## CCOc1ccccc1NC(=O)CCC(=O)NN
[1]
  TGI: > 100 µM
[6]
  TGI: > 100 µM
[2]
  TGI: > 100 µM
[3]
  TGI: > 100 µM
[4]
  TGI: > 100 µM
[5]
  TGI: > 100 µM

## O=C(NOC(=O)c1ccc([N+](=O)[O-])cc1)c1ccc(Cl)cc1
[6]
  TGI: > 100 µM
[2]
  TGI: > 100 µM
[7]
  TGI: 89.7 µM
[3]
  TGI: > 100 µM
[4]
  TGI: > 100 µM
[5]
  TGI: 65.3 µM

## O=C1Nc2ccc(Br)cc2C1=Nc1ccc(Cl)cc1
[8]
  TGI: 23.5 µM
